Reference: ChEMBL document CHEMBL1141486, “Synthesis and biological evaluation of novel 1,3,5-triazine derivatives as antimicrobial agents” (Bioorg Med Chem Lett, 2008)
Active and inactive are the calls of the source. The rule behind the calls is not given here.

Legend:
[1] = Hemolytic activity in red blood cells at 100 uM; format: ADME, cell-based, Erythrocyte; settings: read-out: Activity
[2] = Effect on disruption of membrane integrity using […]-2-oleoyl-sn-glycero-3-[phospho-rac-(1-glycerol)] lipid vesicle at 70 uM by calcein dye leakage assay; format: functional
[3] = system: Bacillus subtilis; assay: Antibacterial activity against Bacillus subtilis […] by microdilution method; format: functional, organism-based
[4] = Hemolytic activity in red blood cells; format: ADME, cell-based, Erythrocyte; settings: read-out: HD50 (the source's name)
[5] = system: Bacillus anthracis; assay: Antibacterial activity against Bacillus anthracis by microdilution method; format: functional, organism-based
[6] = system: Acinetobacter baumannii; assay: Antibacterial activity against Acinetobacter baumannii ATCC BAA747 by microdilution method; format: functional, organism-based
[7] = system: Escherichia coli; assay: Antibacterial activity against ampicillin and streptomycin-resistant Escherichia coli D31 by microdilution method; format: functional, organism-based
[8] = system: Staphylococcus aureus; assay: Antibacterial activity against multi-drug resistant Staphylococcus aureus ATCC BAA44 by microdilution method; format: functional, organism-based
[9] = Effect on disruption of membrane integrity using […]-2-oleoyl-sn-glycero-3-[phospho-rac-(1-glycerol)] lipid vesicle at 50 uM by calcein dye leakage assay; format: functional
[10] = Effect on disruption of membrane integrity using […]-2-oleoyl-sn-glycero-3-[phospho-rac-(1-glycerol)] lipid vesicle at 90 uM by calcein dye leakage assay; format: functional

For `CCCCN(CCCC)CCCNc1nc(NC2CCCCC2)nc(NC23CC4CC(CC(C4)C2)C3)n1`, the hemolysis at 100 µM [1] was < 10%.
In the case of `CCCCN(CCCC)CCCNc1nc(NCCCN2CCCC(C)C2)nc(NC23CC4CC(CC(C4)C2)C3)n1` (centres undefined), the hemolysis at 100 µM [1] is reported as < 10%.
In the case of `CC1(C)S[C@@H]2[C@H](NC(=O)[C@H](N)c3ccccc3)C(=O)N2[C@H]1C(=O)O`, the Activity [2] is reported as “inactive”.
Molecule `C[N+](C)(C)CCNc1nc(NC2CCCCCC2)nc(NC23CC4CC(CC(C4)C2)C3)n1` has an IC50 [3] of 5.3 µM.
With `CCCCN(CCCC)CCCNc1nc(NC2CCC2)nc(NC23CC4CC(CC(C4)C2)C3)n1` the IC50 [3] was 7.9 µM.
`CCCCN(CCCC)CCCNc1nc(NC23CC4CC(CC(C4)C2)C3)nc(N(CCCC)CCCC)n1` showed an IC50 [3] of 4.4 µM.
With `CCN(CC)CCCNc1nc(NC2CCCCCC2)nc(NC23CC4CC(CC(C4)C2)C3)n1` the hemolysis at 100 µM [1] was < 10%.
Work on `CN(C)CCCNc1nc(NC2CCCCCC2)nc(NC23CC4CC(CC(C4)C2)C3)n1` yielded an IC50 [3] of 5.7 µM.
In the case of `CCCCN(CCCC)CCCNc1nc(NC2CCCC2)nc(NC23CC4CC(CC(C4)C2)C3)n1`, the IC50 [3] is reported as 4.6 µM.
In the case of `CCN(CC)CCCNc1nc(NCc2ccccc2)nc(NC23CC4CC(CC(C4)C2)C3)n1`, the IC50 [3] is reported as 10.6 µM.
For `CCCCN(CCCC)CCCNc1nc(NC2CCCCCCCCCCC2)nc(NC23CC4CC(CC(C4)C2)C3)n1`, the IC50 [3] was 15.9 µM.
For `CCN(CC)CCCNc1nc(NCCCc2ccccc2)nc(NC23CC4CC(CC(C4)C2)C3)n1`, the IC50 [3] was 3.7 µM.
With `CCCCN(CCCC)CCCNc1nc(NC23CC4CC(CC(C4)C2)C3)nc(NC23CC4CC(CC(C4)C2)C3)n1` the IC50 [3] was 39 µM.
`CCCCN(CCCC)CCCNc1nc(NC2CC3CCC2C3)nc(NC23CC4CC(CC(C4)C2)C3)n1` (centres undefined) gave an IC50 [3] of 7.6 µM.
In the case of `CCCCN(CCCC)CCCNc1nc(NCCCN(CC)CC)nc(NC23CC4CC(CC(C4)C2)C3)n1`, the hemolysis at 100 µM [1] is reported as < 10%.
With `CCCCN(CCCC)CCCNc1nc(NCCCN(CCCC)CCCC)nc(NC23CC4CC(CC(C4)C2)C3)n1` the hemolysis at 100 µM [1] was < 10%.
`CN(C)CCNc1nc(NC2CCCCCC2)nc(NC23CC4CC(CC(C4)C2)C3)n1` showed an IC50 [3] of 7 µM.
With `CCCCN(CCCC)CCCNc1nc(NC23CC4CC(CC(C4)C2)C3)nc(N(CCC)CC2CC2)n1` the IC50 [3] was 5 µM.
For `CCN(CC)CCCNc1nc(NCCc2ccccc2)nc(NC23CC4CC(CC(C4)C2)C3)n1`, the HC50 [4] was > 3.5 mM, the IC50 [3] was 2.7 µM and the IC50 [5] was 21 µM. It also gave an IC50 [6] of 22 µM, an IC50 [7] of 200 µM and an IC50 [8] of 17 µM. It also gave an Activity [9] of 100%.
Work on `CN1CCCC1CCNc1nc(NC2CCCCCC2)nc(NC23CC4CC(CC(C4)C2)C3)n1` (centres undefined) yielded an IC50 [3] of 5.9 µM.
In the case of `CCCCN(CCCC)CCCNc1nc(NC2CCCCCC2)nc(NC23CC4CC(CC(C4)C2)C3)n1`, the HC50 [4] is reported as > 3.5 mM, the IC50 [3] is reported as 2.5 µM and the IC50 [5] is reported as 41 µM. For the same molecule, the IC50 [6] was 53 µM, the hemolysis at 100 µM [1] was < 10% and the IC50 [7] was 620 µM. For the same molecule, the IC50 [8] was 68 µM.
For `CN(C)c1nc(NC2CCCCCC2)nc(NC23CC4CC(CC(C4)C2)C3)n1`, the IC50 [3] was > 40 µM and the Activity [10] was “inactive”.
Work on `NCCCNc1nc(NC2CCCCCC2)nc(NC23CC4CC(CC(C4)C2)C3)n1` yielded an IC50 [3] of 4.7 µM.
Work on `CCN(CC)CCNc1nc(NC2CCCCCC2)nc(NC23CC4CC(CC(C4)C2)C3)n1` yielded an IC50 [3] of 5.6 µM.
`CCCCN(CCCC)CCCNc1nc(NCC2CCCCC2)nc(NC23CC4CC(CC(C4)C2)C3)n1` showed an IC50 [3] of 5.5 µM.
Work on `CCN(CC)CCCNc1nc(NCc2ccc3c(c2)OCO3)nc(NC23CC4CC(CC(C4)C2)C3)n1` yielded an IC50 [3] of 3.5 µM.
With `CCCCN(CCCC)CCCNc1nc(NC2CCCCCCC2)nc(NC23CC4CC(CC(C4)C2)C3)n1` the HC50 [4] was > 3.5 mM, the IC50 [3] was 2 µM and the IC50 [5] was 86 µM. For the same molecule, the IC50 [6] was 84 µM, the IC50 [7] was 550 µM and the IC50 [8] was 70 µM.
Work on `CCCCN(CCCC)CCCNc1nc(NC2CC2)nc(NC23CC4CC(CC(C4)C2)C3)n1` yielded an IC50 [3] of 16.4 µM.
For `CCCCN(CCCC)CCCNc1nc(NCCc2ccc(OC)cc2)nc(NC23CC4CC(CC(C4)C2)C3)n1`, the hemolysis at 100 µM [1] was < 10%.
For `CCN(CC)CCCNc1nc(NCCc2ccc(OC)cc2)nc(NC23CC4CC(CC(C4)C2)C3)n1`, the hemolysis at 100 µM [1] was < 10%.
Molecule `NCCNc1nc(NC2CCCCCC2)nc(NC23CC4CC(CC(C4)C2)C3)n1` has an IC50 [3] of 5.9 µM.
